Results as given in US7098233B2 (priority 2001, dated 2006).
Where two headings read alike, the source gives them in different places.

How the values were obtained:
V1b of vasopressin = V1b of vasopressin (Homo sapiens, UniProt P47901); assay: Receptor panel binding: vasopressin V1b
NA transporter = NA transporter (Homo sapiens, UniProt P23975); assay: Receptor panel binding: NA transporter
D2 dopaminergic = D2 dopaminergic (Homo sapiens, UniProt P14416); assay: Receptor panel binding: D2 dopaminergic
D1 dopaminergic = D1 dopaminergic (Homo sapiens, UniProt P21728); assay: Receptor panel binding: D1 dopaminergic
V2 of vasopressin = V2 of vasopressin (Homo sapiens, UniProt P30518); assay: Receptor panel binding: vasopressin V2
V2 of vasopressin, sequence (P30518 whole entry): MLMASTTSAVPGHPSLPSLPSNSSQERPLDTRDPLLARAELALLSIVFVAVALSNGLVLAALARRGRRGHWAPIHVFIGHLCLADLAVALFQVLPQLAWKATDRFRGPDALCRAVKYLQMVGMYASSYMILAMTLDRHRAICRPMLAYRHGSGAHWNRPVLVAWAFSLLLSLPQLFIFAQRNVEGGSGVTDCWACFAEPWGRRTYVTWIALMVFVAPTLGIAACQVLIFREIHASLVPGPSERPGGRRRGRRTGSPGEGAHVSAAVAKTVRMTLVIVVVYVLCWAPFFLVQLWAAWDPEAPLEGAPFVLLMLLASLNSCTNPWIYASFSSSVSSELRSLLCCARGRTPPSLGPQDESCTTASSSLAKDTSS

D4,4 dopaminergic = target: T1, D4,4 dopaminergic (Homo sapiens, UniProt P21917); assay: Receptor panel binding: D4,4 dopaminergic
T1 sequence (P21917 1-419): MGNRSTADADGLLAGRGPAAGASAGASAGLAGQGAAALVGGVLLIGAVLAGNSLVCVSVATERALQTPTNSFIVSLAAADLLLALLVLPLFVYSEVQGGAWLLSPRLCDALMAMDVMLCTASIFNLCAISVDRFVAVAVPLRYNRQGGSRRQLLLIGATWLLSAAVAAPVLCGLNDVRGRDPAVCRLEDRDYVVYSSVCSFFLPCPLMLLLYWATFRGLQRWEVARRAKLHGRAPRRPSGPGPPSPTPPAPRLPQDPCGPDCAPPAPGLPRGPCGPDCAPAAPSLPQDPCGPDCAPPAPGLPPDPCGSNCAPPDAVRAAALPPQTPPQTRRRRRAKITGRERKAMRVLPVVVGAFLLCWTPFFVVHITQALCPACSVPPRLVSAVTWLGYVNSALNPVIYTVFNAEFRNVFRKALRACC

5-HT4 = 5-HT4 (Homo sapiens, UniProt Q13639); assay: Binding affinity for serotonin subtype 5-HT4
5-HT4, sequence (Q13639 whole entry, species assumed): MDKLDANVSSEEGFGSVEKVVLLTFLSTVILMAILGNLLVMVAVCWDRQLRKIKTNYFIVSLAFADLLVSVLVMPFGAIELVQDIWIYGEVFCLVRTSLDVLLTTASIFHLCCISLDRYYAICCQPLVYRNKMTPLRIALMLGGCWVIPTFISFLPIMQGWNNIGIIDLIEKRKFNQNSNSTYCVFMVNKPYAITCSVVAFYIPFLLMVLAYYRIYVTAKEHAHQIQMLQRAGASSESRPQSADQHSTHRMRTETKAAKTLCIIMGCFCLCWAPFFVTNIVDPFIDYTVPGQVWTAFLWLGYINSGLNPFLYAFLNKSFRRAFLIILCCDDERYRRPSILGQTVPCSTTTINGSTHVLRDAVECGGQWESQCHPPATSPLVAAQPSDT

V1a of vasopressin = V1a of vasopressin (Homo sapiens, UniProt P37288); assay: Receptor panel binding: vasopressin V1a
D5 dopaminergic = D5 dopaminergic (Homo sapiens, UniProt P21918); assay: Receptor panel binding: D5 dopaminergic
5-HT1a = target: T2, 5-HT1a (Homo sapiens, UniProt P08908); assay: Binding affinity for serotonin subtype 5-HT1a
T2 sequence (P08908 1-422): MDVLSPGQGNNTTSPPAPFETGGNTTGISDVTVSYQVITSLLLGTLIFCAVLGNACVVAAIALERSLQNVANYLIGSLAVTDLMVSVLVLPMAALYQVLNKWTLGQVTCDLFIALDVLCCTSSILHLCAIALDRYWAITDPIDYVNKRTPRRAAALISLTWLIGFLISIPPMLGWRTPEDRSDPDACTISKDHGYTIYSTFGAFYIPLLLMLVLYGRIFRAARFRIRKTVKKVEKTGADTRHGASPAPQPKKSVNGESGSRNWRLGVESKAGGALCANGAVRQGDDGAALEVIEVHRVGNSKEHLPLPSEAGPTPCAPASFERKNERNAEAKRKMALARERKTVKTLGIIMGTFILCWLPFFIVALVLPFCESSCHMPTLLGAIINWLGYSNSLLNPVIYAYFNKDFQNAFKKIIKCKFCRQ

H1 histaminergic = H1 histaminergic (Homo sapiens, UniProt P35367); assay: Receptor panel binding: H1 histaminergic
[1] = target: T3, rat 5-HT6 stably transfected to HEK293 (Rattus norvegicus, UniProt P31388); assay: 5-HT6 receptor binding, [3H]-LSD displacement; settings: for selectivity of binding for 5-HT6 receptor (in words): over other serotonin sites and other neurotransmitter receptors
T3 construct: expressed in transfected cells; host or cells: HEK293
T3 sequence (P31388 whole entry): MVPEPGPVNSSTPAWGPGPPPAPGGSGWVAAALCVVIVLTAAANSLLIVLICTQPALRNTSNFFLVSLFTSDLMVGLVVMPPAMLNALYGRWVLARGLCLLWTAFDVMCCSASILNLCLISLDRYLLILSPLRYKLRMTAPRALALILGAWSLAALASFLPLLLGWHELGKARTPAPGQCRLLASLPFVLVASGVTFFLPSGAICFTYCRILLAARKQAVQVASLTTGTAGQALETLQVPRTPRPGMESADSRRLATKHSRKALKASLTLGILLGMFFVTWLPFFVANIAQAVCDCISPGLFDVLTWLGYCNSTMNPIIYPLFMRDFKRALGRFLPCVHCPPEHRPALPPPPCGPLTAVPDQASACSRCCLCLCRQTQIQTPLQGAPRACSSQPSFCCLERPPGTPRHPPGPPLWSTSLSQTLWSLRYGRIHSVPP

5-HT transporter = 5-HT transporter (Homo sapiens, UniProt P31645); assay: Binding affinity for 5-HT transporter
5-HT transporter, sequence (P31645 whole entry): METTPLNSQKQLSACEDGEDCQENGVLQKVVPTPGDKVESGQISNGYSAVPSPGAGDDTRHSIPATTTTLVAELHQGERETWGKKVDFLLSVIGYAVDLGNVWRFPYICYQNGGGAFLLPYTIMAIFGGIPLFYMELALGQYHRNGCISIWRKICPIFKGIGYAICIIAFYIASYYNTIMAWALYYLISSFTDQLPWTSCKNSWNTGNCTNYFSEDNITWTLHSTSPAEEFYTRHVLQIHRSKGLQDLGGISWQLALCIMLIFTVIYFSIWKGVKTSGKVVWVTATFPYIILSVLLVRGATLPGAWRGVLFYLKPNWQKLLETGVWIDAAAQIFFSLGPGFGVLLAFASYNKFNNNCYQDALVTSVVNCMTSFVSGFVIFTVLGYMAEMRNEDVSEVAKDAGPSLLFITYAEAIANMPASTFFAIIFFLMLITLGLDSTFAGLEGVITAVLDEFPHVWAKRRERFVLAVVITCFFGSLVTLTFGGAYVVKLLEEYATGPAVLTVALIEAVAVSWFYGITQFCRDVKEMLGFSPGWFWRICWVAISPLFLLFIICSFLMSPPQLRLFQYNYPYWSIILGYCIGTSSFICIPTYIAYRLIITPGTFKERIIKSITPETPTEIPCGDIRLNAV

[2] = target: T4, alpha1b adrenergic receptor (Homo sapiens, UniProt P35368); assay: Receptor panel binding: alpha1b adrenergic; settings: for interaction capability for alpha1b receptors lower than for 5-HT6 receptor: alpha1b versus 5-HT6
T4 sequence (P35368 1-520): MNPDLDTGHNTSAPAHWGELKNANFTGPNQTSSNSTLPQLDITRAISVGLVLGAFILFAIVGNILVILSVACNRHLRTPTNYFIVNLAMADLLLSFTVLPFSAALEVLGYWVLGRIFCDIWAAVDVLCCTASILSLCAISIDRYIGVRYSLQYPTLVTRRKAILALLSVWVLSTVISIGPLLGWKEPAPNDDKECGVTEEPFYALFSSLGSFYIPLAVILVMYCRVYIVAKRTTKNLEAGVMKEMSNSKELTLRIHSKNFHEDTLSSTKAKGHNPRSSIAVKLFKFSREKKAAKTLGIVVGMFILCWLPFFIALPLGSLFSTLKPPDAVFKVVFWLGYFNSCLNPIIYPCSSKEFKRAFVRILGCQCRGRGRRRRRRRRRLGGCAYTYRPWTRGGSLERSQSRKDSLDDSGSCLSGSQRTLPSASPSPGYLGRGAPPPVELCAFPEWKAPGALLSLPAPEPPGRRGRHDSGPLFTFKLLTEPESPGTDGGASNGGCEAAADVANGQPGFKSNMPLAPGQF

5-HT5a = 5-HT5a (Homo sapiens, UniProt P47898); assay: Binding affinity for serotonin subtype 5-HT5a
5-HT5a, sequence (P47898 whole entry, species assumed): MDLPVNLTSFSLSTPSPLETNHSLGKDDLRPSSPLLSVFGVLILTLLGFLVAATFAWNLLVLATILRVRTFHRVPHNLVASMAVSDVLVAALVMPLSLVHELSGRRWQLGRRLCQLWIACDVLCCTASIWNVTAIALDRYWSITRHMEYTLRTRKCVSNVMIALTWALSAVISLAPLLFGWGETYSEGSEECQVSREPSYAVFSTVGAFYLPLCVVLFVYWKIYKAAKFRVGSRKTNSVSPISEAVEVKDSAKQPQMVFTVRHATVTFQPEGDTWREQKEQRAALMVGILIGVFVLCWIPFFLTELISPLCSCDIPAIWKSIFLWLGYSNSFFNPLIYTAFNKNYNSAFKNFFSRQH

DA transporter = DA transporter (Homo sapiens, UniProt Q01959); assay: Receptor panel binding: DA transporter
DA transporter, sequence (Q01959 whole entry, species assumed): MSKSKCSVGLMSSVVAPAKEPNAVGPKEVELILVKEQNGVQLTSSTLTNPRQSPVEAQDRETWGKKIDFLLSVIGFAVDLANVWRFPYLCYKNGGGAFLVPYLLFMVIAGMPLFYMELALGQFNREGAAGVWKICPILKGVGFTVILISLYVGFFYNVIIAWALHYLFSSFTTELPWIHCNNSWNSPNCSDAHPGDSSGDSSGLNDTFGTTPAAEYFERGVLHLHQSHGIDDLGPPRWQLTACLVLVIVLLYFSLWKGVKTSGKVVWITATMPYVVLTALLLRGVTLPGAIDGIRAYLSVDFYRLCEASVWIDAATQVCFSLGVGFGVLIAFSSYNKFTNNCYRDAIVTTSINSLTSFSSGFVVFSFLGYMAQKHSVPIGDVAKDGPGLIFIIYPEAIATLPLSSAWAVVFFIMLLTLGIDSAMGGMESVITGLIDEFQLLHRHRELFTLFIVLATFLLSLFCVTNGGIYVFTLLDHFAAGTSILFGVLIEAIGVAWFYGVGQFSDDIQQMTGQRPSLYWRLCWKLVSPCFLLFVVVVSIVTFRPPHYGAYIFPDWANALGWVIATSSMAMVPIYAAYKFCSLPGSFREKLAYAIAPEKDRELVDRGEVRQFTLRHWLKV

5-HT3 = target: T5, 5-HT3 (Homo sapiens, UniProt P46098); assay: Binding affinity for serotonin subtype 5-HT3
T5 sequence (P46098 24-478): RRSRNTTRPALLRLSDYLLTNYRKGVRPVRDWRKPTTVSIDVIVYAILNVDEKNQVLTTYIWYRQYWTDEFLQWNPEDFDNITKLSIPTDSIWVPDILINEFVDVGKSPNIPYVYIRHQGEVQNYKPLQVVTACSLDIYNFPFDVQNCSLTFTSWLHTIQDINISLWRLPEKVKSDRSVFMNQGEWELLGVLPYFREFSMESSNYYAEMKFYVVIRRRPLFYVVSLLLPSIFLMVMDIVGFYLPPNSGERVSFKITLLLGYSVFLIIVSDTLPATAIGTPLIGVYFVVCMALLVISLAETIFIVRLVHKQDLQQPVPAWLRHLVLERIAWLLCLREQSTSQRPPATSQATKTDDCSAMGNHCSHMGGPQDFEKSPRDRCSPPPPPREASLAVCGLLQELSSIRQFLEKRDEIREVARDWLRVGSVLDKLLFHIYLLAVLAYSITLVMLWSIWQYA

5-HT1d = 5-HT1d (Homo sapiens, UniProt P28221); assay: Binding affinity for serotonin subtype 5-HT1d
5-HT1d, sequence (P28221 whole entry, species assumed): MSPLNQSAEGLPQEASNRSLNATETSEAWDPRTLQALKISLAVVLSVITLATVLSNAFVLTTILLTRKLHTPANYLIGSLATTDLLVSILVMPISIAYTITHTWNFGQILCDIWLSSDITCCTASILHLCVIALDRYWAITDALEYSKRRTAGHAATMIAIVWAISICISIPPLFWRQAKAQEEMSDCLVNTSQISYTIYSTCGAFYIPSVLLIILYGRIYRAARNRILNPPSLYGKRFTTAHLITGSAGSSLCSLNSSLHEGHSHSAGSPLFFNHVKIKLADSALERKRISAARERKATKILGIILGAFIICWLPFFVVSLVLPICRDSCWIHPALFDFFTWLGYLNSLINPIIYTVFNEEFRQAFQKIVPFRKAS

beta1 adrenergic = beta1 adrenergic (Homo sapiens, UniProt P08588); assay: Receptor panel binding: beta1 adrenergic
D3 dopaminergic = D3 dopaminergic (Homo sapiens, UniProt P35462); assay: Receptor panel binding: D3 dopaminergic
D3 dopaminergic, sequence (P35462 whole entry): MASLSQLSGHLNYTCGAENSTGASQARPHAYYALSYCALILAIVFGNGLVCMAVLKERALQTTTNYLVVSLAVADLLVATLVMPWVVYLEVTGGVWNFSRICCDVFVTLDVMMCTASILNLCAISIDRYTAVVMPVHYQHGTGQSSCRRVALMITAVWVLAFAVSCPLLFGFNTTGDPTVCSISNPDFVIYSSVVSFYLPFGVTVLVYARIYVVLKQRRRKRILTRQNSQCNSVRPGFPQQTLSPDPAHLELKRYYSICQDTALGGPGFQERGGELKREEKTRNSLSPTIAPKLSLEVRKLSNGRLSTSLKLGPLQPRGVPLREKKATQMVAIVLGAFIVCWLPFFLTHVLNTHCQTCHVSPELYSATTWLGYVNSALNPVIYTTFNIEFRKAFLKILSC

5-HT2b = 5-HT2b (Homo sapiens, UniProt P41595); assay: Binding affinity for serotonin subtype 5-HT2b
5-HT2b, sequence (P41595 whole entry, species assumed): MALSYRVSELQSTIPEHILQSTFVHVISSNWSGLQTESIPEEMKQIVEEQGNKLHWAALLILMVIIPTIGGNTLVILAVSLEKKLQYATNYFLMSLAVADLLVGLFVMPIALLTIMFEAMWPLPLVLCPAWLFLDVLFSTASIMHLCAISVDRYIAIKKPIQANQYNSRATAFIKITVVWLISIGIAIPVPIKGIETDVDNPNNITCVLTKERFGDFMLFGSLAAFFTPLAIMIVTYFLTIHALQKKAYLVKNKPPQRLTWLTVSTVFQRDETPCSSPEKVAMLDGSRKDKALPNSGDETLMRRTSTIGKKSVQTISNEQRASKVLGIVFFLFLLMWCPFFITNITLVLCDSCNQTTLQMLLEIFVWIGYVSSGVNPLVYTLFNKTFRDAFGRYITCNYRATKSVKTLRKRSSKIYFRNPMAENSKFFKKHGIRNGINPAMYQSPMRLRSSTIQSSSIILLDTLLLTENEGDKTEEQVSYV

[3] = target: T6, human 5-HT7 receptor stably transfected to CHO cells (Homo sapiens, UniProt P34969); assay: 5-HT7 receptor binding, [3H]-LSD displacement
T6 construct: expressed in transfected cells; host or cells: CHO
T6 sequence (P34969 whole entry): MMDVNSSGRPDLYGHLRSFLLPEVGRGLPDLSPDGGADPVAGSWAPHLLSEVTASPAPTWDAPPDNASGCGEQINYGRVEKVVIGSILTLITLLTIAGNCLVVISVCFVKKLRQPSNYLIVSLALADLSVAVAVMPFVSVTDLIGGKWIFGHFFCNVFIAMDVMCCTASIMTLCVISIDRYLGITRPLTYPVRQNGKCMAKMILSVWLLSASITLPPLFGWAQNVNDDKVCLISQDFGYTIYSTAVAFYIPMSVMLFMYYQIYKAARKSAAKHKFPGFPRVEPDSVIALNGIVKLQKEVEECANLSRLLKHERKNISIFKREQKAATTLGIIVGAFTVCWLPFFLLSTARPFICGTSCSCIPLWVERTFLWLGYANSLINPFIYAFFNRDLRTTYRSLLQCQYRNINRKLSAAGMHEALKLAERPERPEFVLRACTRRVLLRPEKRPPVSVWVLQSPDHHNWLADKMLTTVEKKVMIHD

5-HT1b = 5-HT1b (Homo sapiens, UniProt P28222); assay: Binding affinity for serotonin subtype 5-HT1b
5-HT1b, sequence (P28222 whole entry, species assumed): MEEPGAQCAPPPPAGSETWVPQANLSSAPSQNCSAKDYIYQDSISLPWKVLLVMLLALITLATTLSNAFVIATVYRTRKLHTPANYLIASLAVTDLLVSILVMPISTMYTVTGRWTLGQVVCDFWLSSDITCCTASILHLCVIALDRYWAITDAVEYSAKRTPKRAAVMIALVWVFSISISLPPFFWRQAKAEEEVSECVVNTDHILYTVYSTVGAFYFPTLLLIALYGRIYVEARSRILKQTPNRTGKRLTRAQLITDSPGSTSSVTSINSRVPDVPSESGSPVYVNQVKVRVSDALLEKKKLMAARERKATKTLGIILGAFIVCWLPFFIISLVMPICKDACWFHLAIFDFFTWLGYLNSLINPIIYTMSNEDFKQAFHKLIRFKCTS

5-HT2c = target: T7, 5-HT2c (Homo sapiens, UniProt P28335); assay: Binding affinity for serotonin subtype 5-HT2c
T7 sequence (P28335 33-458): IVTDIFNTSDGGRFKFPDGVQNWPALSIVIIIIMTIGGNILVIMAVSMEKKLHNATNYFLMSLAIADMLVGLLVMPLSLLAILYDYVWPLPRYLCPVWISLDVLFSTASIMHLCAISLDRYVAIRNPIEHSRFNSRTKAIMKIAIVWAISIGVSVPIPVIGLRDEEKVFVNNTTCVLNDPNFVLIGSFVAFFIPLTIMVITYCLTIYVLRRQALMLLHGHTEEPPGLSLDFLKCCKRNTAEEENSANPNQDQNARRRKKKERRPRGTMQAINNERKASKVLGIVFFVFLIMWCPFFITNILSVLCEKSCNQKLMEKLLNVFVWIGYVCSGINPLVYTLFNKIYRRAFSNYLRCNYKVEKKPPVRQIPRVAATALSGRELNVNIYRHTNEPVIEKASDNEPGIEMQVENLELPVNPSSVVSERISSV

alpha1a adrenergic = alpha1a adrenergic (Homo sapiens, UniProt P35348); assay: Receptor panel binding: alpha1a adrenergic
opiate (non-selective) = assay: Receptor panel binding: opiate; settings: read-out: affinity value, opiate (non-selective)
PCP = assay: Receptor panel binding: PCP; settings: read-out: affinity (Ki), PCP
vasopressin V1 = assay: Receptor panel binding: vasopressin V1; settings: read-out: affinity (Ki), vasopressin V1
nicotinic receptors = assay: Receptor panel binding: nicotinic receptors; settings: read-out: affinity (Ki), nicotinic receptors
NMDA = assay: Receptor panel binding: NMDA; settings: read-out: affinity value, NMDA
5-HT2a = 5-HT2a (Homo sapiens, UniProt P28223); assay: biochemical; assay type: binding
[4] = target: muscarinic (non-selective); assay: Receptor panel binding: muscarinic; settings: read-out: affinity value, muscarinic (non-selective)

Row | SMILES | melting point | Ki (NA transporter) [nM] | Ki (D2 dopaminergic) [nM] | Ki (D1 dopaminergic) [nM] | Ki (V2 of vasopressin) [nM] | Ki (D4,4 dopaminergic) [nM] | Ki (5-HT4) [nM] | Ki (D5 dopaminergic) [nM] | Ki (5-HT1a) [nM] | Ki (H1 histaminergic) [nM] | 5-HT6 binding affinity compared with Serotonin (in words) [1] | IC50 [1] [nM] | Ki [1] [nM] | affinity for rat recombinant 5-HT6 receptor (in words) [1] | Ki (5-HT transporter) [nM] | Ki (5-HT5a) [nM] | Ki (DA transporter) [nM] | Ki (5-HT3) [nM] | Ki (5-HT1d) [nM] | Ki (D3 dopaminergic) [nM] | other results
1 | Cc1[nH]c2ccc(Cl)cc2c1CCN(C)C [ST 1936, 5-chloro-2-methyl-N,N-dimethyltryptamine] | 126 to 127 °C | ≥ 1000 | ≥ 1000 | ≥ 1000 | ≥ 1000 | ≥ 1000 | > 1000 | ≥ 1000 | > 1000 | ≥ 1000 | greater than that observed for Serotonin | 62 | 31 | high affinity | > 1000 | > 1000 | ≥ 1000 | > 1000 | > 1000 | ≥ 1000 | Ki (V1b of vasopressin): ≥ 1000 nM; Ki (V1a of vasopressin): ≥ 1000 nM; Ki [2]: 53 nM; interaction capability for alpha1b receptors lower than for 5-HT6 receptor [2]: about 2 fold; Ki (beta1 adrenergic): ≥ 1000 nM; Ki (5-HT2b): > 1000 nM; IC50 [3]: 527 nM; Ki [3]: 0.168 µM; affinity for human recombinant 5-HT7 receptor (in words) [3]: moderate; Ki (5-HT1b): > 1000 nM; Ki (5-HT2c): > 1000 nM; Ki (alpha1a adrenergic): ≥ 1000 nM
2 | Cc1[nH]c2ccc(Br)cc2c1CCN(C)C [ST 1938, 5-bromo-2-methyl-N,N-dimethyltryptamine] | 135 to 136 °C | > 1000 | > 1000 | > 1000 | > 1000 | > 1000 | > 1000 | > 1000 | 947 | > 1000 | greater than that observed for Serotonin | 62 | 32 | high affinity | > 1000 | > 1000 | > 1000 | > 1000 | > 1000 | > 1000 | Ki (opiate (non-selective)): > 1000 nM; Ki (PCP): > 1000 nM; Ki (vasopressin V1): > 1000 nM; selectivity of binding for 5-HT6 receptor (in words) [1]: mixed activity for 5-HT6 and 5-HT7 serotonin receptors; Ki (nicotinic receptors): > 1000 nM; Ki (5-HT2b): 154 nM; Ki (NMDA): > 1000 nM; Ki (5-HT2a): > 1000 nM; IC50 [3]: 158 nM; Ki [3]: 0.047 µM; affinity for human recombinant 5-HT7 receptor (in words) [3]: highest affinity; Ki (5-HT1b): > 1000 nM; Ki (5-HT2c): > 1000 nM; Ki [4]: > 1000 nM
3 | CCc1[nH]c2ccc(Cl)cc2c1CCN(C)C [ST 2253, 5-Chloro-2-ethyl-N,N-dimethyltryptamine] | 188 °C (dec.) | ≥ 1000 | ≥ 1000 | ≥ 1000 | ≥ 1000 | ≥ 1000 | > 1000 | ≥ 1000 | ≥ 1000 | ≥ 1000 | greater than that observed for Serotonin | 52 | 26 | high affinity | > 1000 | > 1000 | ≥ 1000 | > 1000 | > 1000 | ≥ 1000 | Ki (V1b of vasopressin): ≥ 1000 nM; Ki (V1a of vasopressin): ≥ 1000 nM; selectivity of binding for 5-HT6 receptor (in words) [1]: selective affinity for 5-HT6 receptor; Ki [2]: 69 nM; interaction capability for alpha1b receptors lower than for 5-HT6 receptor [2]: ~3 fold; Ki (beta1 adrenergic): ≥ 1000 nM; Ki (5-HT2b): 84 nM; Ki (5-HT2a): > 1000 nM; IC50 [3]: > 1000 nM; Ki [3]: > 1 µM; affinity for human recombinant 5-HT7 receptor (in words) [3]: negligible; Ki ([3]; read-out: Affinity (Ki) 5-HT7, Table 2, cell printed in μM): > 1 µM; Ki (5-HT1b): > 1000 nM; Ki (5-HT2c): > 1000 nM; Ki (alpha1a adrenergic): ≥ 1000 nM
4 | NCCc1c[nH]c2ccc(O)cc12 [Serotonin, reference compound] |  |  |  |  |  |  |  |  |  |  |  | 171 | 87 |  |  |  |  |  |  |  | 
